From patent US12655130B2 (ASSEMBLY BIOSCIENCES, INC., priority 2020, dated 2026)

system: HBV viral load (viral production from HepAD38 cells); assay: Activity of test compounds on viral production from HepAD38 cells (viral load by qPCR of HBV core sequence); assay type: cell-based; conditions: Hepatitis B virus, HePAD38, 120 h, viral load lowering, 5 days, qPCR of supernatant, read-out: VL HepAD38 EC50 range
Method: Assay Measuring Activity of Test Compounds on Viral Production from HepAD38 Cells
HepAD38 cells grown in a T-150 flask (Corning, cat #: 430825) with Growth Medium (DMEM/F12 (1:1) (Hyclone, cat #: SH30023.02), 1× Pen/Strep (Invitrogen, cat #: 15140-122), 10% FBS (Tissue Culture Biologics, cat #: 101), 250 μg/mL G418 (Alfa Aesar, cat #: J62671), 1 μg/mL Tetracycline (Teknova, cat #: T3320)) were detached with 0.25% trypsin-EDTA (Invitrogen, cat #: 25200-056). Tetracycline-free treatment medium (15 mL DMEM/F12 (1:1) 1× Pen/step, with 2% FBS, Tet-system approved (Clontech, cat #: 631106) were then added to mix, transferred into a 50 ml conical tube (Falcon, cat #: 21008-918) and spun at 1300 rpm for 5 min. Pelleted cells were then re-suspended/washed with 50 mL of 1×DPBS (Invitrogen, cat #: 14190-136) 2 times and 50 mL treatment medium twice. HepAD38 cells were then re-suspended with 10 mL of treatment medium, syringed and counted. Wells of 96-well clear bottom TC plate (Corning, cat #: 3904) were seeded at 50,000 cells/well in 180 μL of treatment medium, and 20 μL of either 10% DMSO (Sigma, cat #: D4540) as controls or a 10× solution of test compounds in 10% DMSO in treatment media was added for a final compound concentration starting at 10 μM, and plates were incubated in 5% CO2 incubator at 37° C. for 5 days.
Subsequently viral load production was assayed by quantitative PCR (qPCR) of the HBV core sequence. PCR reaction mixture containing forward primers HBV-f 5′-CTGTGCCTTGGGTGGCITT-3′ (IDT DNA), Reverse primers HBV-r 5′-[…]-3′ (IDT DNA), Fluorescent TaqMan™ Probes HBV-probe 5′-FAM/AGCTCCAAA/ZENMITCTITATAAGGGTCGATGTC/3IABkFQ-3′ (IDT DNA), 10 μL/well of PerfeCTa® qPCR ToughMix® (Quanta Biosciences, Cat #: 95114-05K), and 6 μL/well of DEPC water (Alfa Aesar, cat #: J62087) was prepared. Four μL of supernatant was added to 16 μL of the reaction mixture in a qPCR plate (Applied Biosytems, Cat #: 4309849), sealed with a film (Applied Biosystems, Cat #: 4311971), centrifuged for a few seconds, and subsequently run on an Applied Biosystems VIIA7. The PCR mixture was incubated at 45° C. for 5 min, then 95° C. for 10 min, followed by 40 cycles of 10 seconds at 95° C. and 20 seconds at 60° C. Viral load was quantified against known HBV DNA standards by using ViiA™ 7 Software. Viral load in the supernatant from wells with treated cells were compared against viral load in supernatant from DMSO control wells (3 per plate). Cell viability assay was performed with CellTiter-Glo Luminescent Cell Viability Assay (Promega, cat #: G7573) with modification. Mixed appropriate amount of CellTiter-Glo (CTG) 1×DPBS in a 1:1 ratio, added 100 uL of the mixture to each well followed completely removal of all supernatant in each well without touching cell surface. Incubated the plate at room temperature for 10 min on an orbital shaker, and then read the plate with a plate reader (TECAN M1000 or Envision). EC50 or CC50 values were calculated through curve-fitting of the four-parameter nonlinear-logistic-regression model (GraphPad Prism or Dotmatics). CC50 values were all >10 μM.

SMILES | EC50
CCC(C)n1nc(N)cc1C1(O)CC2CC(c3ncn(C)c3C(=O)Nc3ccc(F)c(Cl)c3)CC2C1 (stereo not drawn) [Example 161, 4-(5-(3-Amino-1-(sec-butyl)-1H-pyrazol-5-yl)-5-hydroxyoctahydropentalen-2-yl)-N-(3-chloro-4-fluorophenyl)-1-methyl-1H-imidazole-5-carboxamide] | < 10 nM
CC(C)n1nc(N)c(Cl)c1C1(O)CC2CC(c3ncn(C)c3C(=O)Nc3ccc(F)c(Cl)c3)CC2C1 (stereo not drawn) [Example 102, 4-(5-(3-amino-4-chloro-1-isopropyl-1H-pyrazol-5-yl)-5-hydroxyoctahydropentalen-2-yl)-N-(3-chloro-4-fluorophenyl)-1-methyl-1H-imidazole-5-carboxamide] | < 10 nM
Cn1cc(C2(O)CC3CC(c4ncn(C)c4C(=O)Nc4ccc(F)c(Cl)c4)CC3C2)c(C#N)n1 (stereo not drawn) [Example 180, N-(3-Chloro-4-fluorophenyl)-4-(5-(3-cyano-1-methyl-1H-pyrazol-4-yl)-5-hydroxyoctahydropentalen-2-yl)-1-methyl-1H-imidazole-5-carboxamide] | < 10 nM
Cn1cnc(C2CC3CC(O)(c4c(Cl)cnn4C)CC3C2)c1C(=O)Nc1ccc(F)c(Cl)c1 (stereo not drawn) [Example 122, 4-(5-(4-chloro-1-methyl-1H-pyrazol-5-yl)-5-hydroxyoctahydro-pentalen-2-yl)-N-(3-chloro-4-fluorophenyl)-1-methyl-1H-imidazole-5-carboxamide] | < 10 nM
CC(CO)Oc1cc(C2(O)CC3CC(c4ncn(C)c4C(=O)Nc4ccc(F)c(Cl)c4)CC3C2)n(C)n1 (stereo not drawn) [Example 202, N-(3-Chloro-4-fluorophenyl)-4-(5-hydroxy-5-(3-((1-hydroxypropan-2-yl)oxy)-1-methyl-1H-pyrazol-5-yl)octahydropentalen-2-yl)-1-methyl-1H-imidazole-5-carboxamide] | < 10 nM
Cn1cnc(C2CC3CC(O)(c4c(C#N)cnn4C)CC3C2)c1C(=O)Nc1ccc(F)c(Cl)c1 (stereo not drawn) [Example 125, N-(3-chloro-4-fluorophenyl)-4-(5-(4-cyano-1-methyl-1H-pyrazol-5-yl)-5-hydroxyoctahydropentalen-2-yl)-1-methyl-1H-imidazole-5-carboxamide] | < 10 nM
Cn1cnc(C2CC3CC(O)(c4c[nH]nc4C(F)(F)F)CC3C2)c1C(=O)Nc1ccc(F)c(Cl)c1 (stereo not drawn) [Example 150, N-(3-Chloro-4-fluorophenyl)-4-(5-hydroxy-5-(3-(trifluoromethyl)-1H-pyrazol-4-yl)octahydropentalen-2-yl)-1-methyl-1H-imidazole-5-carboxamide] | < 10 nM
O=C(Nc1ccc(F)c(Cl)c1)c1c(C2CC3CC(O)CC3C2)nc2n1CCOC2 (stereo not drawn) [Example 82, N-(3-Chloro-4-fluorophenyl)-2-(5-hydroxyoctahydropentalen-2-yl)-5,6-dihydro-8H-imidazo[2,1-c][1,4]oxazine-3-carboxamide] | 50 to 500 nM
Cn1cnc(C2CC3CC(O)(c4cc([N+](=O)[O-])nn4C)CC3C2)c1C(=O)Nc1ccc(F)c(Cl)c1 (single isomer, unassigned) [Example 50, N-(3-Chloro-4-fluorophenyl)-4-(5-hydroxy-5-(1-methyl-3-nitro-1H-pyrazol-5-yl)octahydropentalen-2-yl)-1-methyl-1H-imidazole-5-carboxamide] | < 10 nM
Cn1cnc(C2CC3CC(O)(c4ccc(F)cc4)CC3C2)c1C(=O)Nc1ccc(F)c(Cl)c1 (stereo not drawn) [Example 7, N-(3-Chloro-4-fluorophenyl)-4-(5-(4-fluorophenyl)-5-hydroxyoctahydropentalen-2-yl)-1-methyl-1H-imidazole-5-carboxamide] | < 10 nM
Cc1cc(C2(O)CC3CC(c4ncn(C)c4C(=O)Nc4ccc(F)c(Cl)c4)CC3C2)n(C)n1 (single isomer, unassigned) [Example 71, N-(3-Chloro-4-fluorophenyl)-4-(5-(1,3-dimethyl-1H-pyrazol-5-yl)-5-hydroxyoctahydropentalen-2-yl)-1-methyl-1H-imidazole-5-carboxamide] | < 10 nM
Cn1cnc(C2CC3CC(O)(c4cc(NCC(F)(F)F)nn4C)CC3C2)c1C(=O)Nc1ccc(F)c(Cl)c1 (stereo not drawn) [Example 197, N-(3-Chloro-4-fluorophenyl)-4-(5-hydroxy-5-(1-methyl-3-((2,2,2-trifluoroethyl)amino)-1H-pyrazol-5-yl)octahydropentalen-2-yl)-1-methyl-1H-imidazole-5-carboxamide] | < 10 nM
Cn1cc(C2(O)CC3CC(c4ncn(C)c4C(=O)Nc4ccc(F)c(Cl)c4)CC3C2)c(C(F)(F)F)n1 (single isomer, unassigned) [Example 114, N-(3-Chloro-4-fluorophenyl)-4-(5-hydroxy-5-(1-methyl-3-(trifluoromethyl)-1H-pyrazol-4-yl)octahydropentalen-2-yl)-1-methyl-1H-imidazole-5-carboxamide] | < 10 nM
CC(=O)c1nn(C)c(C2(O)CC3CC(c4ncn(C)c4C(=O)Nc4ccc(F)c(Cl)c4)CC3C2)c1F (stereo not drawn) [Example 65, 4-(5-(3-Acetyl-4-fluoro-1-methyl-1H-pyrazol-5-yl)-5-hydroxyoctahydropentalen-2-yl)-N-(3-chloro-4-fluorophenyl)-1-methyl-1H-imidazole-5-carboxamide] | < 10 nM
CCn1nc(N)c(Cl)c1C1(O)CC2CC(c3ncn(C)c3C(=O)Nc3ccc(F)c(Cl)c3)CC2C1 (stereo not drawn) [Example 168, 4-(5-(3-Amino-4-chloro-1-ethyl-1H-pyrazol-5-yl)-5-hydroxyoctahydropentalen-2-yl)-N-(3-chloro-4-fluorophenyl)-1-methyl-1H-imidazole-5-carboxamide] | 10 to 50 nM
CN(C)c1ccn(CC2(O)CC3CC(c4ncn(C)c4C(=O)Nc4ccc(F)c(Cl)c4)CC3C2)n1 (stereo not drawn) [Example 96, N-(3-chloro-4-fluorophenyl)-4-(5-((3-(dimethylamino)-1H-pyrazol-1-yl)methyl)-5-hydroxyoctahydropentalen-2-yl)-1-methyl-1H-imidazole-5-carboxamide] | < 10 nM
Cn1cnc(C2CC3CC(O)(c4[nH]ncc4C(F)(F)F)CC3C2)c1C(=O)Nc1ccc(F)c(Cl)c1 (stereo not drawn) [Example 149, N-(3-Chloro-4-fluorophenyl)-4-(5-hydroxy-5-(4-(trifluoromethyl)-1H-pyrazol-5-yl)octahydropentalen-2-yl)-1-methyl-1H-imidazole-5-carboxamide] | < 10 nM
O=C(Nc1ccc(F)c(Cl)c1)c1c(C2CC3CC(O)CC3C2)nc2n1CCNC2 (stereo not drawn) [Example 85, N-(3-chloro-4-fluorophenyl)-2-(5-hydroxyoctahydropentalen-2-yl)-5,6,7,8-tetrahydroimidazo[1,2-a]pyrazine-3-carboxamide] | 50 to 500 nM
Cc1cn[nH]c1C1(O)CC2CC(c3ncn(C)c3C(=O)Nc3ccc(F)c(Cl)c3)CC2C1 (stereo not drawn) [Example 135, N-(3-chloro-4-fluorophenyl)-4-(5-hydroxy-5-(4-methyl-1H-pyrazol-5-yl)octahydropentalen-2-yl)-1-methyl-1H-imidazole-5-carboxamide] | < 10 nM
CC(O)COc1cc(C2(O)CC3CC(c4ncn(C)c4C(=O)Nc4ccc(F)c(Cl)c4)CC3C2)n(C)n1 (stereo not drawn) [Example 208, N-(3-Chloro-4-fluorophenyl)-4-(5-hydroxy-5-(3-(2-hydroxypropoxy)-1-methyl-1H-pyrazol-5-yl)octahydropentalen-2-yl)-1-methyl-1H-imidazole-5-carboxamide] | < 10 nM

same assay, conditions: viral load lowering, 5 days, qPCR of supernatant, read-out: VL HepAD38 EC50 range

SMILES | EC50
CC(O)c1cc(C2(O)CC3CC(c4ncn(C)c4C(=O)Nc4ccc(F)c(Cl)c4)CC3C2)n(C)n1 (stereo not drawn) [Example 60, N-(3-Chloro-4-fluorophenyl)-4-(5-hydroxy-5-(3-(1-hydroxyethyl)-1-methyl-1H-pyrazol-5-yl)octahydropentalen-2-yl)-1-methyl-1H-imidazole-5-carboxamide] | < 10 nM
